Measured values taken from ChEMBL document CHEMBL2311450, “Synthesis and antibacterial evaluation of novel 11,4″-disubstituted azithromycin analogs with greatly improved activity against erythromycin-resistant bacteria” (2013).
In brackets after ≈: the same amount, converted by molar mass.

Legend:
Salmonella typhimurium [1] = experiment: Antibacterial activity against Salmonella typhimurium TA102 by broth microdilution method; format: functional, Salmonella enterica subsp. enterica serovar Typhimurium; settings: Salmonella enterica
Salmonella typhimurium [2] = experiment: Antibacterial activity against Salmonella typhimurium TA98 by broth microdilution method; format: functional, Salmonella enterica subsp. enterica serovar Typhimurium; settings: Salmonella enterica
Streptococcus pyogenes [3] = experiment: Antibacterial activity against erythromycin-resistant Streptococcus pyogenes RE clinical isolate by broth microdilution method; format: functional
Streptococcus pyogenes [4] = experiment: Antibacterial activity against erythromycin-susceptible Streptococcus pyogenes by broth microdilution method; format: functional
Staphylococcus aureus [5] = experiment: Antibacterial activity against methicillin-susceptible Staphylococcus aureus ATCC 29213 by broth microdilution method; format: functional
Staphylococcus aureus [6] = experiment: Antibacterial activity against penicillin-resistant Staphylococcus aureus clinical isolate by broth microdilution method; format: functional
Staphylococcus aureus [7] = experiment: Antibacterial activity against erythromycin-susceptible Staphylococcus aureus ATCC 25923 by broth microdilution method; format: functional
Streptococcus pneumoniae [8] = experiment: Antibacterial activity against erythromycin-resistant Streptococcus pneumoniae AB11 expressing erm and mef genes by broth microdilution method; format: functional
Streptococcus pneumoniae [9] = experiment: Antibacterial activity against erythromycin-resistant Streptococcus pneumoniae A22072 expressing mef gene by broth microdilution method; format: functional
Streptococcus pneumoniae [10] = experiment: Antibacterial activity against erythromycin-resistant Streptococcus pneumoniae B1 expressing erm gene by broth microdilution method; format: functional
Streptococcus pneumoniae [11] = experiment: Antibacterial activity against erythromycin-susceptible Streptococcus pneumoniae ATCC 49619 by broth microdilution method; format: functional

Compound | MIC (Salmonella typhimurium [1]) [µg/mL] | MIC (Salmonella typhimurium [2]) [µg/mL] | MIC (Streptococcus pyogenes [3]) [µg/mL] | MIC (Streptococcus pyogenes [4]) [µg/mL] | MIC (Staphylococcus aureus [5]) [µg/mL] | MIC (Staphylococcus aureus [6]) [µg/mL] | MIC (Staphylococcus aureus [7]) [µg/mL] | MIC (Streptococcus pneumoniae [8]) [µg/mL] | MIC (Streptococcus pneumoniae [9]) [µg/mL] | MIC (Streptococcus pneumoniae [10]) [µg/mL] | MIC (Streptococcus pneumoniae [11]) [µg/mL]
CC[C@H]1OC(=O)[C@H](C)[C@@H](O[C@H]2C[C@@](C)(OC)[C@@H](OC(=O)NCCNC(=O)c3cc([N+](=O)[O-])cc([N+](=O)[O-])c3)[C@H](C)O2)[C@H](C)[C@@H](O[C@@H]2O[C@H](C)C[C@H](N(C)C)[C@H]2O)[C@](C)(O)C[C@@H](C)CN(C)[C@H](C)[C@@H](OC(=O)NCCc2ccccc2)[C@]1(C)O | 2 (≈ 1.7 µM) | 0.5 (≈ 0.425 µM) | 64 (≈ 54.4 µM) | 8 (≈ 6.8 µM) | 4 (≈ 3.4 µM) | 4 (≈ 3.4 µM) | 0.12 (≈ 0.102 µM) | 2 (≈ 1.7 µM) | 0.06 (≈ 0.051 µM) | 0.25 (≈ 0.213 µM) | 0.06 (≈ 0.051 µM)
CC[C@H]1OC(=O)[C@H](C)[C@@H](O[C@H]2C[C@@](C)(OC)[C@@H](OC(=O)NCCCCNC(=O)c3ccc(OC)cc3)[C@H](C)O2)[C@H](C)[C@@H](O[C@@H]2O[C@H](C)C[C@H](N(C)C)[C@H]2O)[C@](C)(O)C[C@@H](C)CN(C)[C@H](C)[C@@H](OC(=O)NCc2ccccc2)[C@]1(C)O | 0.12 (≈ 0.106 µM) | 2 (≈ 1.77 µM) | 64 (≈ 56.6 µM) | 8 (≈ 7.08 µM) | 4 (≈ 3.54 µM) | 2 (≈ 1.77 µM) | 0.5 (≈ 0.442 µM) | 8 (≈ 7.08 µM) | 0.12 (≈ 0.106 µM) | 2 (≈ 1.77 µM) | 0.03 (≈ 0.0265 µM)
CC[C@H]1OC(=O)[C@H](C)[C@@H](O[C@H]2C[C@@](C)(OC)[C@@H](OC(=O)NCCCCNC(=O)c3ccc(OC)cc3)[C@H](C)O2)[C@H](C)[C@@H](O[C@@H]2O[C@H](C)C[C@H](N(C)C)[C@H]2O)[C@](C)(O)C[C@@H](C)CN(C)[C@H](C)[C@@H](OC(=O)NCc2ccc(OC)cc2)[C@]1(C)O | 2 (≈ 1.72 µM) | 16 (≈ 13.8 µM) | 64 (≈ 55.2 µM) | 32 (≈ 27.6 µM) | 4 (≈ 3.45 µM) | 4 (≈ 3.45 µM) | 1 (≈ 0.862 µM) | 16 (≈ 13.8 µM) | 0.5 (≈ 0.431 µM) | 2 (≈ 1.72 µM) | 0.12 (≈ 0.103 µM)
CC[C@H]1OC(=O)[C@H](C)[C@@H](O[C@H]2C[C@@](C)(OC)[C@@H](OC(=O)NCCCCNC(=O)c3ccc(OC)cc3)[C@H](C)O2)[C@H](C)[C@@H](O[C@@H]2O[C@H](C)C[C@H](N(C)C)[C@H]2O)[C@](C)(O)C[C@@H](C)CN(C)[C@H](C)[C@@H](OC(=O)NCc2ccc(C)c(C)c2)[C@]1(C)O | 1 (≈ 0.863 µM) | 8 (≈ 6.91 µM) | 64 (≈ 55.2 µM) | 16 (≈ 13.8 µM) | 8 (≈ 6.91 µM) | 4 (≈ 3.45 µM) | 1 (≈ 0.863 µM) | 16 (≈ 13.8 µM) | 0.5 (≈ 0.432 µM) | 4 (≈ 3.45 µM) | 0.12 (≈ 0.104 µM)
CC[C@H]1OC(=O)[C@H](C)[C@@H](O[C@H]2C[C@@](C)(OC)[C@@H](OC(=O)NCCCCNC(=O)c3ccc(OC)cc3)[C@H](C)O2)[C@H](C)[C@@H](O[C@@H]2O[C@H](C)C[C@H](N(C)C)[C@H]2O)[C@](C)(O)C[C@@H](C)CN(C)[C@H](C)[C@@H](OC(=O)NCc2ccc(F)cc2)[C@]1(C)O | 1 (≈ 0.871 µM) | 8 (≈ 6.97 µM) | 64 (≈ 55.7 µM) | 32 (≈ 27.9 µM) | 8 (≈ 6.97 µM) | 4 (≈ 3.48 µM) | 1 (≈ 0.871 µM) | 16 (≈ 13.9 µM) | 0.25 (≈ 0.218 µM) | 4 (≈ 3.48 µM) | 0.06 (≈ 0.0522 µM)
CC[C@H]1OC(=O)[C@H](C)[C@@H](O[C@H]2C[C@@](C)(OC)[C@@H](OC(=O)NCCCCNC(=O)c3ccc(OC)cc3)[C@H](C)O2)[C@H](C)[C@@H](O[C@@H]2O[C@H](C)C[C@H](N(C)C)[C@H]2O)[C@](C)(O)C[C@@H](C)CN(C)[C@H](C)[C@@H](OC(=O)NCc2ccc(F)c(F)c2)[C@]1(C)O | 32 (≈ 27.4 µM) | 4 (≈ 3.43 µM) | 64 (≈ 54.9 µM) | 8 (≈ 6.86 µM) | 4 (≈ 3.43 µM) | 4 (≈ 3.43 µM) | 0.5 (≈ 0.429 µM) | 16 (≈ 13.7 µM) | 0.12 (≈ 0.103 µM) | 4 (≈ 3.43 µM) | 0.03 (≈ 0.0257 µM)
CC[C@H]1OC(=O)[C@H](C)[C@@H](O[C@H]2C[C@@](C)(OC)[C@@H](OC(=O)NCCCCNC(=O)c3ccc(OC)cc3)[C@H](C)O2)[C@H](C)[C@@H](O[C@@H]2O[C@H](C)C[C@H](N(C)C)[C@H]2O)[C@](C)(O)C[C@@H](C)CN(C)[C@H](C)[C@@H](OC(=O)NCCc2ccccc2)[C@]1(C)O | 0.5 (≈ 0.437 µM) | 4 (≈ 3.5 µM) | 64 (≈ 55.9 µM) | 16 (≈ 14 µM) | 0.5 (≈ 0.437 µM) | 4 (≈ 3.5 µM) | 1 (≈ 0.874 µM) | 4 (≈ 3.5 µM) | 0.25 (≈ 0.218 µM) | 1 (≈ 0.874 µM) | 0.06 (≈ 0.0524 µM)
CC[C@H]1OC(=O)[C@H](C)[C@@H](O[C@H]2C[C@@](C)(OC)[C@@H](OC(=O)NCCCCNC(=O)c3ccc(OC)cc3)[C@H](C)O2)[C@H](C)[C@@H](O[C@@H]2O[C@H](C)C[C@H](N(C)C)[C@H]2O)[C@](C)(O)C[C@@H](C)CN(C)[C@H](C)[C@@H](OC(=O)NCCc2ccc(OC)cc2)[C@]1(C)O | 0.5 (≈ 0.426 µM) | 4 (≈ 3.41 µM) | 64 (≈ 54.5 µM) | 16 (≈ 13.6 µM) | 1 (≈ 0.851 µM) | 8 (≈ 6.81 µM) | 1 (≈ 0.851 µM) | 8 (≈ 6.81 µM) | 0.25 (≈ 0.213 µM) | 2 (≈ 1.7 µM) | 0.06 (≈ 0.0511 µM)
CC[C@H]1OC(=O)[C@H](C)[C@@H](O[C@H]2C[C@@](C)(OC)[C@@H](OC(=O)NCCCCNC(=O)c3ccc(OC)cc3)[C@H](C)O2)[C@H](C)[C@@H](O[C@@H]2O[C@H](C)C[C@H](N(C)C)[C@H]2O)[C@](C)(O)C[C@@H](C)CN(C)[C@H](C)[C@@H](OC(=O)NCCc2ccc(F)cc2)[C@]1(C)O | 2 (≈ 1.72 µM) | 4 (≈ 3.44 µM) | 64 (≈ 55.1 µM) | 16 (≈ 13.8 µM) | 2 (≈ 1.72 µM) | 4 (≈ 3.44 µM) | 1 (≈ 0.86 µM) | 8 (≈ 6.88 µM) | 0.5 (≈ 0.43 µM) | 4 (≈ 3.44 µM) | 0.12 (≈ 0.103 µM)
CC[C@H]1OC(=O)[C@H](C)[C@@H](O[C@H]2C[C@@](C)(OC)[C@@H](OC(=O)NCCCCNC(=O)c3ccc(OC)cc3)[C@H](C)O2)[C@H](C)[C@@H](O[C@@H]2O[C@H](C)C[C@H](N(C)C)[C@H]2O)[C@](C)(O)C[C@@H](C)CN(C)[C@H](C)[C@@H](OC(=O)NCCc2ccccc2Cl)[C@]1(C)O | 8 (≈ 6.79 µM) | 2 (≈ 1.7 µM) | 64 (≈ 54.3 µM) | 16 (≈ 13.6 µM) | 1 (≈ 0.848 µM) | 4 (≈ 3.39 µM) | 0.5 (≈ 0.424 µM) | 8 (≈ 6.79 µM) | 0.5 (≈ 0.424 µM) | 2 (≈ 1.7 µM) | 0.06 (≈ 0.0509 µM)
CC[C@H]1OC(=O)[C@H](C)[C@@H](O[C@H]2C[C@@](C)(OC)[C@@H](OC(=O)NCCCCNC(=O)c3ccccc3OC)[C@H](C)O2)[C@H](C)[C@@H](O[C@@H]2O[C@H](C)C[C@H](N(C)C)[C@H]2O)[C@](C)(O)C[C@@H](C)CN(C)[C@H](C)[C@@H](OC(=O)NCCc2ccccc2)[C@]1(C)O | 1 (≈ 0.874 µM) | 4 (≈ 3.5 µM) | 16 (≈ 14 µM) | 16 (≈ 14 µM) | 32 (≈ 28 µM) | 8 (≈ 6.99 µM) | 0.5 (≈ 0.437 µM) | 16 (≈ 14 µM) | 2 (≈ 1.75 µM) | 8 (≈ 6.99 µM) | 0.12 (≈ 0.105 µM)
CC[C@H]1OC(=O)[C@H](C)[C@@H](O[C@H]2C[C@@](C)(OC)[C@@H](OC(=O)NCCCCNC(=O)c3ccc(OC)c(OC)c3)[C@H](C)O2)[C@H](C)[C@@H](O[C@@H]2O[C@H](C)C[C@H](N(C)C)[C@H]2O)[C@](C)(O)C[C@@H](C)CN(C)[C@H](C)[C@@H](OC(=O)NCCc2ccccc2)[C@]1(C)O | 4 (≈ 3.41 µM) | 4 (≈ 3.41 µM) | 64 (≈ 54.5 µM) | 8 (≈ 6.81 µM) | 32 (≈ 27.2 µM) | 16 (≈ 13.6 µM) | 0.5 (≈ 0.426 µM) | 16 (≈ 13.6 µM) | 2 (≈ 1.7 µM) | 8 (≈ 6.81 µM) | 0.12 (≈ 0.102 µM)
